# Results: ChEMBL document CHEMBL1201862, “PubChem BioAssay data set” (2004)
#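 Exposure lasted 48 hours, with cells grown in 96-well plates and compounds tested at five concentrations. GI50: concentration for 50% inhibition of growth.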 Active and inactive are the calls of the source. No stated cut-off is given here; in the data, active = GI50 up to about 1.1 µM and inactive = higher.
# Tests used:
# Experiment in all cases: NCI anticancer screen, dose series, 48 h
# LXFL 529 = system: LXFL 529
# DMS-273 = system: DMS-273
# DMS-114 = system: DMS-114
# M19-MEL = system: M19-MEL
# SNB-78 = system: SNB-78
# Hs-578T = system: Hs-578T
# MCF7 = system: MCF7
# BT-549 = system: BT-549
SMILES,GI50 (LXFL 529),GI50 (DMS-273),GI50 (DMS-114),GI50 (M19-MEL),GI50 (SNB-78),GI50 (Hs-578T),GI50 (MCF7),GI50 (BT-549)
COc1cc2c(cc1OC)-c1cc(OC)c(OC)cc1[C@H]1CN3CCC[C@@]3(O)C=C21,< 0.0001 µM (active),< 0.0001 µM (active),< 0.0001 µM (active),< 0.0001 µM (active),< 0.0001 µM (active),,,
COc1ccc(CCN2C(=O)C=CC2=O)cc1OC,,,,,,32.4 µM (inactive),17.3 µM (inactive),17.5 µM (inactive)
CCOC1=NC(=O)CC(c2ccccc2)S1 (stereo not drawn),> 100 µM (inactive),> 100 µM (inactive),,> 100 µM (inactive),> 100 µM (inactive),,,
COc1ccc(CSC2=C(C#N)C(=O)NC3(CCCCC3)S2)cc1,,,,,,41.9 µM (inactive),34.2 µM (inactive),48.2 µM (inactive)
O=C(/C(=C\c1ccc(Cl)cc1)c1ccccc1)c1ccccc1,55.5 µM (inactive),,21.4 µM (inactive),,> 100 µM (inactive),,,
C[N+]1(C(CO)Cc2c[nH]c3ccccc23)Cc2ccccc2C1 (stereo not drawn),,,,,,> 100 µM (inactive),> 100 µM (inactive),77.6 µM (inactive)
CC1=CC(=O)c2cccc(NC3=NCCO3)c21,,,,,,76.9 µM (inactive),,
CC[C@@]1(O)CC(OC2CC(N3CCOCC3)C(O)C(C)O2)c2c(O)c3c(c(O)c2[C@H]1O)C(=O)c1cccc(O)c1C3=O (stereo partly drawn),,0.0358 µM (active),0.0935 µM (active),0.101 µM (active),0.305 µM (active),0.348 µM (active),0.0293 µM (active),0.0508 µM (active)
CC(C)Cc1c(C#N)c(C#N)c(N)n1Cc1ccccc1,,,,,,> 100 µM (inactive),> 100 µM (inactive),> 100 µM (inactive)
CC(C)CC(=O)NC(Nc1ccc(S(=O)(=O)Nc2ncccn2)cc1)(C(F)(F)F)C(F)(F)F,,,,,,> 100 µM (inactive),,> 100 µM (inactive)
CC1CC(NN)=Nc2ccccc2N1 (stereo not drawn),,,,,,> 100 µM (inactive),,> 100 µM (inactive)
CC1=NNC(=O)C1C1CC(c2c[nH]c3ccccc23)=NNC1=S (stereo not drawn),,,,,,> 100 µM (inactive),,50.2 µM (inactive)
COC1(OC)C[C@H](C)[C@@]23O[C@]24C2=CC(=O)C=CC2=N[C@H]3C#C/C=C\C#C[C@]14O,,,,,,0.904 µM (active),0.276 µM (active),1 µM (active)
C[C@]12CC[C@H]3[C@@H](CCC4=C(Br)C(=O)C=C[C@@]43O)[C@@H]1CCC2=O,,,,,,62.8 µM (inactive),38.9 µM (inactive),20.7 µM (inactive)
Cc1nc(Nc2ccc(Cl)cc2Cl)sc1C(=O)Nc1ccccc1,,,,,,47 µM (inactive),36 µM (inactive),
O=[N+]([O-])c1cc(C2ON=C(c3ccccc3)N2C23CC4CC(CC(C4)C2)C3)ccc1Cl (stereo not drawn),,,,,,> 100 µM (inactive),2.74 µM (inactive),
CCC[C@H](O)[C@@H](CNc1cc(NC(C)=O)nc(NC(C)=O)n1)N(Cc1ccccc1)Cc1ccccc1,,,,,,14 µM (inactive),8.79 µM (inactive),16.1 µM (inactive)
CCC(C)(O)c1cn(-c2ccc(Cl)cc2)nn1 (stereo not drawn),> 100 µM (inactive),> 100 µM (inactive),,> 100 µM (inactive),> 100 µM (inactive),,,
CSc1c([S+](C)[O-])[nH]c2cc(Br)cc(Br)c12 (stereo not drawn),21.1 µM (inactive),16.4 µM (inactive),,29.2 µM (inactive),19.3 µM (inactive),,,
C[C@H]1CC(=O)C[C@@H]2CC[C@@H]3[C@H](CC[C@]4(C)C(OC(=O)c5cccc6c(=O)c7ccccc7[nH]c56)CC[C@@H]34)[C@]21C (stereo partly drawn),,,,,,46.8 µM (inactive),62.5 µM (inactive),26.7 µM (inactive)

SMILES,GI50 (LXFL 529),GI50 (DMS-273),GI50 (DMS-114),GI50 (M19-MEL),GI50 (SNB-78),GI50 (Hs-578T),GI50 (MCF7),GI50 (BT-549)
O=c1cnn(C2OC(CO)C(O)C(F)C2O)c(=O)[nH]1 (stereo not drawn),,,,,,> 100 µM (inactive),> 100 µM (inactive),> 100 µM (inactive)
CC(C)(CO[C@H]1C[C@H]2CC[C@@]1(C)C2(C)C)[N+](=O)[O-],,,,,,27.4 µM (inactive),22.9 µM (inactive),21.5 µM (inactive)
CC(=O)/C(=C\c1ccc(Cl)c(Cl)c1)C(=O)C(C)CN(C)C (stereo not drawn),,,,,,,3.61 µM (inactive),2.26 µM (inactive)
CCCCCCCCCC(=O)NC(Cc1ccc(O)cc1)C(=O)NCCCNCCCCNCCCNC(=O)[C@@H](N)CCCN=C(N)N (stereo partly drawn),77.3 µM (inactive),20.9 µM (inactive),61.8 µM (inactive),50.2 µM (inactive),,,,
CCC1(CC)C(=O)OC(=O)C1(CC)CC,,,,,,15.2 µM (inactive),,> 100 µM (inactive)
CN(C)CCCNC(=O)c1cc(NC(=O)c2cc(NS(=O)(=O)c3ccc4c(c3)C(=O)c3ccccc3C4=O)cn2C)cn1C,,,,,,,31.8 µM (inactive),52.7 µM (inactive)
CCc1[nH]c(=O)c2oc3cc4ccccc4cc3c2c1C(=O)O,,,,,,> 10 µM (inactive),,> 10 µM (inactive)
O=C(NN=C1NCCCCN1)Nc1ccc(Cl)cc1,,,,,,> 100 µM (inactive),> 100 µM (inactive),> 100 µM (inactive)
Cc1cc(C)c(C(=O)c2nnc3ccccc3c2N)c(C)c1,,,,,,24 µM (inactive),,63.1 µM (inactive)
OCc1ccc2c(c1)CC1(Cc3ccc(/C=N/O)cc3C1)C2 (stereo not drawn),,,,,,2.45 µM (inactive),2 µM (inactive),10.4 µM (inactive)
CSc1nc2cc(S(=O)(=O)N3CCCCC3)ccc2s1,,,,,,> 100 µM (inactive),> 100 µM (inactive),> 100 µM (inactive)
c1ccc(/N=C2\c3ccccc3CN2c2ccccc2)cc1,,,,,,> 100 µM (inactive),> 100 µM (inactive),> 100 µM (inactive)
COc1ccc(OC)c2sc(N3C(=O)/C(=C/c4ccc(N(C)C)cc4)N=C3c3ccccc3)nc12,,,,,,91 µM (inactive),22.3 µM (inactive),97.1 µM (inactive)
CC1CC(C(=O)OC2OC(COC3OC(CO)C(OC4OC(C)C(O)C(O)C4O)C(O)C3O)C(O)C(O)C2O)C2CCC3(C)C(=CCC4(C)C3CCC3C(C)(CO)C(O)C(O)CC34C)C2C1C (stereo not drawn),,,,,,17.7 µM (inactive),23.7 µM (inactive),17.7 µM (inactive)
OC(C#CCN1CCCC1)(c1ccccc1)c1ccccc1Cl (stereo not drawn),,,,,,31 µM (inactive),17.9 µM (inactive),46.2 µM (inactive)
Cc1cc2c(cc1C)C(=O)C1(C2)Cc2c(C)ccc(C)c2C1=O (stereo not drawn),,,,,,84.5 µM (inactive),> 100 µM (inactive),> 100 µM (inactive)
COC(=O)c1c2c(cc3c1CC1(Cc4cc5c(c(C(C)=O)c4C1)CCCC5)C3)CCCC2 (stereo not drawn),,,,,,> 100 µM (inactive),85.1 µM (inactive),
O=C1/C(=C/c2ccccc2)CCc2ccc([N+](=O)[O-])cc21,,,,,,37.4 µM (inactive),4.17 µM (inactive),31.3 µM (inactive)
NC1=NS(=O)(=O)Nc2nc(-c3ccc([N+](=O)[O-])cc3)[nH]c21,> 100 µM (inactive),> 100 µM (inactive),> 100 µM (inactive),> 100 µM (inactive),,,,
Clc1ccccc1C(Nc1ncccn1)Nc1ncccn1,,,,,,> 100 µM (inactive),> 100 µM (inactive),> 100 µM (inactive)

SMILES,GI50 (LXFL 529),GI50 (DMS-273),GI50 (DMS-114),GI50 (M19-MEL),GI50 (SNB-78),GI50 (Hs-578T),GI50 (MCF7),GI50 (BT-549)
Cc1ccc(/C(=C\C(=O)C(=O)NC23CC4CC(CC(C4)C2)C3)Sc2ccccc2)cc1,,,,,,> 10 µM (inactive),> 10 µM (inactive),
O=S(=O)(N/C(=N\O)Nc1ccc(Cl)cc1)c1cc2ccccc2o1,,,,,,20.4 µM (inactive),,17.9 µM (inactive)
COC(=O)c1c2c(cc3c1CC1(Cc4cc5c(c(C=O)c4C1)CCC5)C3)CCC2 (stereo not drawn),,,,,,92.7 µM (inactive),42 µM (inactive),
Cc1cc(C)nc(NS(=O)(=O)c2ccc(Nc3c4ccccc4nc4c(C(=O)NCCN(C)C)ccc(Cl)c34)cc2)n1,1.11 µM (active),,1.01 µM (active),2.05 µM (inactive),8.3 µM (inactive),,,
COc1ccc(NC(=O)CC/C(CC(=O)c2ccco2)=N/NC(=O)C(N)=O)cc1,65.5 µM (inactive),> 100 µM (inactive),35.2 µM (inactive),74.6 µM (inactive),,,,
S=C(Nc1ccc2cn[nH]c2c1)Nc1ccc2cn[nH]c2c1,,,,,,> 100 µM (inactive),82 µM (inactive),27.6 µM (inactive)
COC(=O)/C(C#N)=C1\CCC(Nc2cccc(C(F)(F)F)c2)N1C (stereo not drawn),74 µM (inactive),,> 10 µM (inactive),,> 100 µM (inactive),,,
CNC(=O)CCC(NC(=O)OC(C)(C)C)C(=O)NC(Cc1ccc(NC(=O)CCCCC(C)=O)cc1)C(=O)NCC(=O)NC (stereo not drawn),,,,,,> 100 µM (inactive),> 100 µM (inactive),> 100 µM (inactive)
COc1cccc2c(NNc3ccc(Cl)cc3)c3ccc([N+](=O)[O-])cc3nc12,,,,,,14.5 µM (inactive),19.2 µM (inactive),14 µM (inactive)
C[N+]12C=CC=C1C(N1CCCC1)c1sc(-c3ccc(Cl)cc3)cc12 (stereo not drawn),,,,,,22.1 µM (inactive),14.7 µM (inactive),10.3 µM (inactive)
O=C(O)CSC(CC1(c2ccc(Cl)cc2)NC(=O)CS1)c1ccc(Cl)cc1 (stereo not drawn),,,,,,> 100 µM (inactive),77.1 µM (inactive),> 100 µM (inactive)
O=S(=O)(O)C(CO)c1ccccc1.O=S(=O)(O)Cc1ccccc1 (stereo not drawn),,,,,,96.4 µM (inactive),> 100 µM (inactive),> 100 µM (inactive)
COc1cccc(C2c3cc4c(cc3OC(N3CCCCC3)C2C)OCO4)c1O (stereo not drawn),,,,,,3.63 µM (inactive),5.6 µM (inactive),9.2 µM (inactive)
COC(=O)c1cc(=O)nc2cc3cccccc3n12,> 100 µM (inactive),,,> 100 µM (inactive),,,,
CCOC(=O)NNC(=O)NCCNC(=O)NNC(=O)OCC,,,,,,> 100 µM (inactive),> 100 µM (inactive),> 100 µM (inactive)
CC1(C)[C@@H](Cn2cnc3c(N)ncnc32)CC[C@@]1(C)CO,,,,,,> 100 µM (inactive),74.1 µM (inactive),> 100 µM (inactive)
COCN1COCN(C)C1=O,,> 100 µM (inactive),> 100 µM (inactive),> 100 µM (inactive),> 100 µM (inactive),,,
C[C@]12C[C@@H](c3ccccc3)Nc3ccccc3N1C(c1ccccc1)=NO2,,,,,,77.8 µM (inactive),31 µM (inactive),40.9 µM (inactive)
COc1c(C)cc2c(c1O)C1C3[C@H]4SC[C@@]5(NCCC6=C5NC5C=CC=CC65)C(=O)OCC(c5c6c(c(C)c(OC(C)=O)c54)OCO6)N3[C@@H](O)C(C2)N1C (stereo partly drawn),< 0.01 µM (active),< 0.01 µM (active),< 0.01 µM (active),< 0.01 µM (active),,,,
CCn1c(=O)c2c3cc(OC(C)=O)ccc3oc2c2ccc(OC(C)=O)cc21,,,,,,11.1 µM (inactive),35 µM (inactive),30.5 µM (inactive)
